From patent publication US9441000B2, “Use of metallocene compounds for cancer treatment” (Chevron Phillips Chemical Company LP, priority 2011, dated 2016)
Each block holds one compound with its values, some of them ahead of it.

How the values were obtained:
Type in all cases: cell-based
[1] = system: A253 (head and neck tumor) cell line; assay: Sulforhodamine-B (SRB) microculture colorimetric cytotoxicity assay, A253; conditions: 96 hr treatment, A253 head and neck tumor cells, read-out: IC50 ± SD, A253
Description: (§1) Drug solutions of CPH-1, CPH-2 and CPH-3 were made in dimethyl sulfoxide (DMSO, Sigma Aldrich) at a concentration of 20 mM, filtered through a Millipore filter, 0.22 μm, before use, and diluted by nutrient medium to various working concentrations. The nutrient medium was RPMI-1640 (PAA Laboratories) supplemented with 10% fetal bovine serum (Biochrom AG) and penicillin/streptomycin (PAA Laboratories). […]
(§2) The cytotoxic activities of CPH-1, CPH-2 and CPH-3 were evaluated using a sulforhodamine-B (SRB, Sigma Aldrich) microculture colorimetric assay, as described in Skehan et al., J. Natl. Cancer I. 82 (1990) 1107-1112, the disclosure of which is incorporated herein by reference in its entirety. […] The percentages of surviving cells relative to untreated controls were determined 96 hr after the beginning of drug exposure. […] After dyeing, the plates were again washed to remove the dye with 1% acetic acid and allowed to air dry overnight, 100 μL of 10 mM Tris base solutions were added to each well of the plate, and absorbance was measured at 570 nm using a 96 well plate reader (Tecan Spectra, Crailsheim, Germany). […]

[2] = system: SKOV-3 chemoresistant ovarian cancer cells; assay: CellTiter-Blue viability assay, SKOV-3; conditions: 96 hr treatment, approximately 5,000 SKOV-3 cells
Description: (§3) Examples 18-22 were prepared and tested as follows. Approximately 5,000 A549 cells (University of Texas M.D. Anderson Cancer Center) growing in RPMI 1640 were plated in each 96-well overnight before adding the test compounds for 96 hr of treatment. Final concentrations achieved in the wells were 0, 0.8, 1.6, 3.1, 6.2, 12.5, 25, 50, 100, and 200 μM. All of the test compounds were reconstituted in DMSO just before the treatment. […] After 96 hr, the medium was refreshed. Approximately 10 μL of CellTiter-Blue® (Promega) was added to 100 μL of medium in each well and incubated at 37° C. for >4 hours. The plates were scanned using a SpectraMax M2 model microplate reader to measure the absorbance. CellTiter-Blue contains dark blue resazurin. Viable cells are able to convert non-fluorescent resazurin to its fluorescent product, resorufin. […] Reduction of resazurin to resorufin also involves a shift of the absorbance maximum from 605 nm to 573 nm, so viability can also be estimated using absorbance. Results were normalized to untreated controls to determine the percent reduction in viability. Graphs were generated using GraphPad Prism (GraphPad Software, Inc).
Examples 34-37 were prepared and tested using substantially the same procedure as described in Examples 18-22, except that approximately 5,000 SKOV-3 ovarian cancer cells (American Type Culture Collection) were used. […]

[3] = system: A549 (lung carcinoma) cell line; assay: Sulforhodamine-B (SRB) microculture colorimetric cytotoxicity assay, A549; conditions: 96 hr treatment, A549 lung carcinoma cells, read-out: IC50 ± SD, A549
Description: as §1, §2

[4] = system: A549 lung carcinoma cell line; assay: CellTiter-Blue viability assay, A549 (Examples 18-22); conditions: 96 hr treatment, approximately 5,000 A549 cells per well
Description: as §3

[5] = system: T-24 chemoresistant urinary bladder cancer cells; assay: CellTiter-Blue viability assay, T-24; conditions: 96 hr treatment, approximately 5,000 T-24 cells
Description: as §3
Examples 46-49 were prepared and tested using substantially the same procedure as described in Examples 18-22, except that approximately 5,000 T-24 urinary bladder cancer cells (American Type Culture Collection) were used. […]

[6] = system: A2780 ovarian cancer cells; assay: CellTiter-Blue viability assay, A2780, approximately 2,000 cells (Examples 23-27); conditions: 96 hr treatment, approximately 2,000 A2780 cells
Description: as §3
Examples 23-27 were prepared and tested using substantially the same procedure as described in Examples 18-22, except that approximately 2,000 A2780 ovarian cancer cells (University of Texas M.D. Anderson Cancer Center) were used. […]

[7] = system: A2780 (ovarian cancer) cell line; assay: Sulforhodamine-B (SRB) microculture colorimetric cytotoxicity assay, A2780; conditions: 96 hr treatment, A2780 ovarian cancer cells, read-out: IC50 ± SD, A2780
Description: as §1, §2

[8] = system: MeWo chemoresistant melanoma cancer cells; assay: CellTiter-Blue viability assay, MeWo; conditions: Homo sapiens, 96 hr treatment, approximately 5,000 MeWo cells
Description: as §3
Examples 50-53 were prepared and tested using substantially the same procedure as described in Examples 18-22, except that approximately 5,000 MeWo melanoma cancer cells (University of Texas M.D. Anderson Cancer Center) were used. […]

[9] = system: NCI-Adr-Res chemoresistant ovarian cancer cells; assay: CellTiter-Blue viability assay, NCI-Adr-Res; conditions: Homo sapiens, 96 hr treatment, approximately 5,000 NCI-Adr-Res cells
Description: as §3
Examples 42-45 were prepared and tested using substantially the same procedure as described in Examples 18-22, except that approximately 5,000 NCI-Adr-Res ovarian cancer cells (National Cancer Institute) were used. […]

[10] = system: Hey-A8 MDR chemoresistant ovarian cancer cells; assay: CellTiter-Blue viability assay, Hey-A8 MDR; conditions: HeyA8-MDR, 96 hr treatment, approximately 5,000 Hey-A8 MDR cells
Description: as §3
Examples 38-41 were prepared and tested using substantially the same procedure as described in Examples 18-22, except that approximately 5,000 Hey-A8 MDR ovarian cancer cells (University of Texas M.D. Anderson Cancer Center) were used. […]

SMILES: N.N.[Cl][Pt][Cl] [Cisplatin, cisplatin, reference compound]
IC50 [1]: 0.81 ± 0.02 µM
IC50 [2]: 12.8 µM
IC50 [3]: 1.51 ± 0.02 µM
IC50 [4]: 82.7 µM
IC50 [5]: > 200 µM
IC50 [6]: 35.4 µM
IC50 [7]: 0.55 ± 0.03 µM

IC50 [8]: 7.9 µM
SMILES: CN(C)/N=N/c1[nH]cnc1C(N)=O [Dacarbazine, dacarbazine, reference compound]

IC50 [9]: 14.3 µM
SMILES: COc1cccc2c1C(=O)c1c(O)c3c(c(O)c1C2=O)C[C@@](O)(C(=O)CO)C[C@@H]3O[C@H]1C[C@H](N)[C@H](O)[C@H](C)O1 [Doxorubicin, doxorubicin, reference compound]

IC50 [10]: 0.03 µM
SMILES: CC(=O)O[C@H]1C(=O)[C@@]2(C)[C@H]([C@H](OC(=O)c3ccccc3)[C@]3(O)C[C@H](OC(=O)[C@H](O)[C@@H](NC(=O)c4ccccc4)c4ccccc4)C(C)=C1C3(C)C)[C@]1(OC(C)=O)CO[C@@H]1C[C@@H]2O [Paclitaxel, paclitaxel, reference compound]
